Results from patent US9701667B2, “Coumarin-based fluorogenic agents and uses thereof for specific protein labelling” (UNIVERSITY OF OTTAWA, priority 2014, dated 2017).
“Also recorded” adds a separate entry of the source.

What was measured:
MBP-dC10α [1] = assay: Fluorescence properties and fluorescence enhancement (FE) before/after labelling of model target protein; format: biochemical; conditions: for Fluorescence enhancement (FE): after labelling with MBP-dC10, λex = 440 nm, λem = 485 nm, 50 mM HEPES pH 7.4; for background (intrinsic) fluorescence before labelling / quenching: fluorogen without target protein
Procedure: For experiments described herein, maltose-binding protein (MBP) was chosen as a highly-soluble test protein and the dC10α tag was fused to its C-terminus (MBP-dC10α) as described previously (Guy, J. et al., Mol. Biosyst. 2010, 6, 976-987).
Emission spectra and fluorescence intensity measurements were recorded at 37° C. with a Synergy H4 Hybrid Multi-Mode Microplate Reader with excitation and emission monochromators set at 9 nm bandpass. The mixture of 100 μM solution of fluorogen (YCx) and 100 μM MBP-dC10 in 50 mM HEPES buffer (pH 7.4) with 5% DMSO was incubated at 37° C. in the dark for 12 hours, after which the fluorescence emission spectrum of a dilution (25 μM final) in 50 mM HEPES buffer with 5% DMSO was recorded. The emission spectra of the corresponding labelling reagent in same solution without MBP-dC10α were also recorded. The ratio of fluorescence intensity at maximum emission gave the fluorescence enhancement (FE) ratio.

[2] = Time-dependent fluorescence increase on reaction with GSH; conditions: 25 μM fluorogen; for reaction with low concentration of GSH: 50 μM GSH; for reaction with high concentration (large excess) of GSH: 1 mM GSH
Procedure: (§1) Reactivity was tested through the time-dependent fluorescence increase at 37° C. using Synergy H4 Hybrid Multi-Mode Microplate Reader with excitation and emission monochromators set to 9 nm bandpass. All reactions were prepared in 50 mM HEPES buffer (pH 7.4) with 5% DMSO. Solutions of MBP-dC10α or GSH were prepared in 96-well plates and labelling reagent (YCx) in DMSO was added immediately before recording. The final concentration of labelling reagent was 25 μM, the final concentration of MBP-dC10α was 25 μM and the final concentration of GSH was 50 μM or 1 mM in 50 mM HEPES buffer (pH 7.4) with 5% DMSO. Samples were excited at 440 nm and fluorescence intensity was followed at 485 nm as a function of time.

MBP-dC10α [3] = assay: Time-dependent fluorescence increase on reaction with test protein; format: biochemical
Procedure: as §1

Row | Compound | Fluorescence enhancement (FE) (MBP-dC10α [1]) | reaction with low concentration of GSH [2] | reaction with high concentration (large excess) of GSH [2] | reactivity with test protein MBP-dC10 (MBP-dC10α [3]; 25 μM fluorogen, 25 μM MBP-dC10, 50 mM HEPES pH 7.4) | selectivity of labelling target protein over GSH (MBP-dC10α [3]; MBP-dC10 versus GSH) | background (intrinsic) fluorescence before labelling / quenching (MBP-dC10α [1]) | fluorescence after the labelling reaction (MBP-dC10α [1]; after reaction with MBP-dC10α)
1 | CCC1=CC(=O)N(c2cc(NC(=O)c3cc4ccc(N(CC)CC)cc4oc3=O)cc(N3C(=O)C=C(C)C3=O)c2)C1=O [YC15] | 226 | did not react | showed some signal |  |  |  | 
2 | CCN(CC)c1ccc2cc(C(=O)Nc3cc(N4C(=O)C=C(C)C4=O)cc(N4C(=O)C=C(Br)C4=O)c3)c(=O)oc2c1 [YC18] | 468 |  |  | much more reactive than other fluorogens; also recorded: labelled the protein most efficiently | did not show much difference; also recorded: not as selectively as other fluorogens |  | 
3 | CCN(CC)c1ccc2cc(C(=O)Nc3cc(N4C(=O)C=C(C)C4=O)cc(N4C(=O)C=C(OC(C)C)C4=O)c3)c(=O)oc2c1 [YC19] | 189 | did not react | showed some signal |  |  |  | 
4 | CCOC1=CC(=O)N(c2cc(NC(=O)c3cc4ccc(N(CC)CC)cc4oc3=O)cc(N3C(=O)C=C(C)C3=O)c2)C1=O [YC17] | 194 | did not react | showed some signal |  |  |  | 
5 | CCN(CC)c1ccc2cc(C(=O)N3CCN(C(=O)c4cc(N5C(=O)C=C(C)C5=O)cc(N5C(=O)C=C(C)C5=O)c4)CC3)c(=O)oc2c1 [YC25, 1,1′-(5-(4-(7-(diethylamino)-2-oxo-2H-chromene-3-carbonyl)piperazine-1-carbonyl)-1,3-phenylene)bis(3-methyl-1H-pyrrole-2,5-dione)] |  |  |  |  |  | strong background fluorescence | 
6 | CCN(CC)c1ccc2cc(C(=O)Nc3cc(N4C(=O)C=C(C)C4=O)cc(N4C(=O)C=C(C(C)C)C4=O)c3)c(=O)oc2c1 [YC16] | 228 | did not react | showed some signal |  |  |  | 
7 | COc1ccc2cc(C(=O)N3CCN(C(=O)c4cc(N5C(=O)C=C(C)C5=O)cc(N5C(=O)C=C(C)C5=O)c4)CC3)c(=O)oc2c1 [YC24, 1,1′-(5-(4-(7-methoxy-2-oxo-2H-chromene-3-carbonyl)piperazine-1-carbonyl)-1,3-phenylene)bis(3-methyl-1H-pyrrole-2,5-dione)] |  |  |  |  |  | quenched very efficiently | weak
